Experimental data reported in patent publication US8986738B2, “Inhalative and instillative use of semifluorinated alkanes as an active substance carrier in the intrapulmonary area” (NOVALIQ GmbH, priority 2008, dated 2015).

Assay: Intratracheal bolus instillation of alpha-tocopherol solution in F6H8
Type: in vivo
Settings: pigs
From the text: In the clinical experiment on pigs some of that solution was intratracheally instilled bolus-wise.

location of the drug after exhaling the SFA: remained in the alveolar region
Structure (SMILES): Cc1c(C)c2c(c(C)c1O)CC[C@@](C)(CCC[C@H](C)CCC[C@H](C)CCCC(C)C)O2 [alpha-tocopherol]
transfer of the drug into the bloodstream: no transfer of the drug into the bloodstream was detected
